Earlier results, collected in patent publication US20170140533A1, “SYSTEM AND METHOD FOR AUTOMATED DETECTION AND MONITORING OF DYSPLASIA AND ADMINISTRATION OF IMMUNOTHERAPY AND CHEMOTHERAPY” (VISIONGATE, INC., priority 2015, published 2017).

Experiments:
[1] = tested on: immune response in SSc patients
T cells = details: in vitro

CC#CCC(C)[C@H](O)/C=C/[C@@H]1[C@H]2C/C(=C/CCCC(=O)O)C[C@H]2C[C@H]1O (stereo partly drawn) [Iloprost]
IFN gamma production ([1]; SSc patients): No effect | T regulatory cells number ([1]; SSc patients): reduces | serum IL-2 ([1]; SSc patients, serum): increases | T regulatory cells activity ([1]; after immune stimulation): increases | persistence of serum IL-2 increase after the last infusion ([1]; after the last infusion): 28 days | RANKL ([1]; in vivo): increased | T cell and TNF alpha production ([1]; in vivo, SSc patients): reduces | RANKL (T cells): increased | T cell and TNF alpha production (T cells): reduces
